US20080113900A1, “Pharmaceutical compositions and therapeutic applications for the use of a synthetic vitamin B12 derivative, glutathionylcobalamin” (priority 2006, published 2008)
Where “and” joins values, the source holds several entries; their conditions need not be identical. Equal entries are not always repeated.

Legend:
[1] = tested on: SK-HEP-1 cells; test: Protection of endothelial cells from homocysteine-induced cell death (MTS assay); format: cell-based, human
[2] = Decomposition in PBS at 37° C. monitored by UV/Vis spectrophotometry; format: physicochemical
Protocol: The decomposition of GSCbl, NACCbl, and HcyCbl in PBS at 37° C. was monitored by UV/Vis spectrophotometry.

[3] = tested on: Hsp32; test: Hsp32 gene expression (RT-PCR, densitometry); format: cell-based, human; conditions: SK-HEP-1; Sn (IX) protoporphyrin 25 μM; Quercitin 15 μM
Protocol: Cells were plated into 6-, 12-, or 24-well cell culture clusters, at 2×10^3, 2×10^5, or 1×10^5 cells per well and incubated until 90% confluent. Treatments were applied as above.
Following incubation, cells were subjected to mRNA extraction followed by cDNA synthesis for each sample under test. Polymerase chain reaction cDNA templates were prepared for simplex PCR protocol. PCR products were then visualized using a UV Transilluminator and images captured using a Kodak ID gel imaging system. Densitometry and statistical analysis was then performed on each gene expression band image using PSP® v 10.0 running under Windows XP®.
mRNA extraction was performed using the Quickprep micro mRNA Purification Kit. Following incubation of cells post-treatment, the media was removed from the cells, adherent cells were re-suspended in 0.4 ml extraction buffer and 0.8 ml elution buffer at 65° C. was added.
A reaction mixture was prepared in individual microcentrifuge tubes containing 2 cDNA synthesis beads, 32 μl of the mRNA solution and 1 μl of pd(N)6. This mixture was incubated at 37° C. in a water bath for 60 minutes. After incubation, 27 μl of RNase-free DEPC treated water was added to each tube to make a total volume 60 μl. cDNA samples were prepared in duplicate. Sample 1 was used immediately in RT-PCR protocol. Sample 2 was prepared for qPCR protocol by the addition of 150 μl of 95% ice-cold ethanol and stored at −20° C.
Microcentrifuge tubes from puReTaq™Ready-To-Go™ PCR Beads containing one PCR bead were labeled for each sample required. Added to the PCR bead were 17 μl of RNase-free DEPC treated water, 1 μl sense primer, 1 μl anti-sense primer and 5 μl of the cDNA solution. RT-PCR conditions were as follows: Hsp70 and β-actin, pre-treatment step, 94° C. for 1 minute, followed by denaturing at 92° C. for 1 minute, annealing at 60° C. for 1 minute and extension at 72° C. for 1 minute. Total cycles, 30, post-treatment was then carried out at 72° C. for 10 minutes. For Hsp32, pre-treatment step, 95° C. for 2 minutes, followed by denaturing at 94° C. for 30 seconds, annealing at 58° C. for 1 minute and extension at 72° C. for 1 minute. Total cycles 45, post treatment was then carried out at 72° C. for 10 minutes. Following RT-PCR, samples were stored at −20° C.
Gels were visualised on a UV Transilluminator. Photographs were stored using a Kodak Digital camera system fitted with a UV filter set connected to a PC. Images were then transferred to the Kodak ID gel imaging system. Densitometry was performed on each gene expression band using PSP™ v10 running under Windows XP®.
Experiments were conducted using Hsp32 and Hsp 70 gene expression as the basis for study. […] The densitometric data are presented as means ±SEM of n=3 separate experiments. *p<0.05 or **p<0.01, treatment vs. control.

[4] = tested on: SK-HEP-1 cells; test: Protection of endothelial cells from H2O2-induced cell death (MTS assay); format: cell-based, human; design: key to Cell viability (MTS assay): cell viability as % survival; conditions: for Cell viability (MTS assay): SK-HEP-1, n = 6 replicates
[5] = tested on: SK-HEP-1 cells; test: NACCbl protection from homocysteine with inhibition of Hsp32/Hsp70 by Sn(IX) protoporphyrin, quercitin or siRNA (MTS assay)
[6] = tested on: SK-HEP-1 cells; test: Effect of high concentrations of NACCbl and GSCbl on SK-HEP-1 cells (MTS assay, 24 hours); format: cell-based, human; conditions: for Cell viability by MTS assay (FIG. 13): SK-HEP-1, 3 replicates

With `CC(=O)NC(C[S-])C(=O)O.CC1=C2N=C(C=C3N=C(C(C)=C4[N-]C(C(CC(N)=O)C4(C)CCC(=O)NCC(C)OP(=O)([O-])OC4C(CO)OC(n5cnc6cc(C)c(C)cc65)C4O)C4(C)N=C1C(CCC(N)=O)C4(C)CC(N)=O)C(CCC(N)=O)C3(C)C)C(CCC(N)=O)C2(C)CC(N)=O.[Co+3]` [NACCbl, N-acetyl-L-cysteinylcobalamin] the “Protection compared with GSCbl” value ([1]; concentrations below 12.5 μM, 30 μM homocysteine, p<0.001) was “significantly greater than that provided by GSCbl”, the “Protection from homocysteine-induced cell death” value ([1]; pre-incubation 30 μM two hours, variable homocysteine two hours) was “protected cells from homocysteine-induced cell death” and the Survival ([1]; ≧12.5 μM NACCbl, then 30 μM homocysteine 24 hours) was 80%. The t1/2 [2] was “No decomposition within 20 hours”, the Hsp32 gene expression [3] was “induced” and the Survival ([4]; NACCbl 30 μM, above 25 μM H2O2) was “below 60%”. The “Cell viability (MTS assay)” value ([4]; compound 30 μM two hours, then H2O2 0 μM) was 102.9844 and 100.8053 and 103.2212 and 107.9583 and 101.8948 and 98.44, the “Cell viability (MTS assay)” value ([4]; compound 30 μM two hours, then H2O2 0.781 μM a further two hours) was 93.46 and 102.7949 and 99.24 and 101.3738 and 103.2686 and 95.45 and the “Cell viability (MTS assay)” value ([4]; compound 30 μM two hours, then H2O2 1.56 μM a further two hours) was 98.53 and 91.38 and 98.72 and 100.1421 and 89.77 and 96.12. For the same compound, the “Cell viability (MTS assay)” value ([4]; compound 30 μM two hours, then H2O2 3.125 μM a further two hours) was 88.2 and 93.18 and 92.89 and 99.76 and 92.42 and 91.8, the “Cell viability (MTS assay)” value ([4]; compound 30 μM two hours, then H2O2 6.25 μM a further two hours) was 88.2 and 87.59 and 82.14 and 81.57 and 78.07 and 77.12 and the “Cell viability (MTS assay)” value ([4]; compound 30 μM two hours, then H2O2 12.5 μM a further two hours) was 77.17 and 76.98 and 76.6 and 67.12 and 77.6883 and 74.14. For the same compound, the “Cell viability (MTS assay)” value ([4]; compound 30 μM two hours, then H2O2 25 μM a further two hours) was 67.12 and 66.75 and 61.87 and 56.18 and 55.3766 and 55.95, the “Cell viability (MTS assay)” value ([4]; compound 30 μM two hours, then H2O2 50 μM a further two hours) was 50.21 and 48.27 and 44.955 and 45.71 and 48.18 and 44.58 and the “Cell viability (MTS assay)” value ([4]; compound 30 μM two hours, then H2O2 100 μM a further two hours) was 29.99 and 23.97 and 19.56 and 18.901 and 17.53 and 20.89. The “Cell viability (MTS assay)” value ([4]; compound concentration 1.562, 2 hours, then 25 μM H2O2 24 hours) was 4.677 and 1.845 and 5.27 and 1.647 and 4.348 and 5.599, the “Cell viability (MTS assay)” value ([4]; compound concentration 3.125, 2 hours, then 25 μM H2O2 24 hours) was 26.8116 and 19.5 and 35.84 and 30.5 and 35.24 and 33 and the “Cell viability by MTS assay (FIG. 11), replicates 1-6” value (from here on “Cell viability … replicates 1-6”) ([5]; SK-HEP-1, NACCbl 30 μM two hours with or without Sn(IX)PP/quercetin, then Hcy conc. 200 two hours, label Hcy = Hcy alone) was 1.378 and 1.167 and 1.33 and 1.456 and 1.491 and 1.537. The “Reduction of the protection by NACCbl on inhibition of Hsp32” value ([5]; Sn(IX) protoporphyrin or siRNA, p<0.001) was 10-20%, the “Cell viability … replicates 1-6” value ([5]; as E45, Hcy conc. 0) was 2.885 and 2.698 and 2.821 and 2.771 and 2.691 and 2.7 and the “Cell viability … replicates 1-6” value ([5]; as E45, Hcy conc. 1.78) was 2.647 and 2.551 and 2.789 and 2.89 and 2.549 and 2.611. For the same compound, the “Cell viability … replicates 1-6” value ([5]; as E45, Hcy conc. 3.125) was 2.453 and 2.338 and 2.36 and 2.317 and 2.418 and 2.535, the “Cell viability … replicates 1-6” value ([5]; as E45, Hcy conc. 6.25) was 2.41 and 2.4 and 2.322 and 2.201 and 2.115 and 2.187 and the “Cell viability … replicates 1-6” value ([5]; as E45, Hcy conc. 12.5) was 2.21 and 2.11 and 2.045 and 2.065 and 2.101 and 2.324. For the same compound, the “Cell viability … replicates 1-6” value ([5]; as E45, Hcy conc. 25) was 2.1 and 2.19 and 1.879 and 1.937 and 1.779 and 1.837, the “Cell viability … replicates 1-6” value ([5]; as E45, Hcy conc. 50) was 1.678 and 1.832 and 1.881 and 1.73 and 1.74 and 1.855 and the “Cell viability … replicates 1-6” value ([5]; as E45, Hcy conc. 100) was 1.678 and 1.592 and 1.694 and 1.773 and 1.732 and 1.639. The “Protection by NACCbl on inhibition of both Hsp32 and Hsp70 together” value ([5]; chemically and directly) was “totally removed protection”, the “Reduction of the protection by NACCbl on inhibition of Hsp70” value ([5]; quercitin or siRNA, p<0.001) was 20-40% and the Survival ([6]; SK-HEP-1, 10 mM, 24 hours) was “over 60%”. The “Cell viability by MTS assay (FIG. 13)” value ([6]; compound conc. 0.61, 24 hours) was 2.572 and 2.498 and 2.473, the “Cell viability by MTS assay (FIG. 13)” value ([6]; compound conc. 1.22, 24 hours) was 2.546 and 2.524 and 2.538 and the “Cell viability by MTS assay (FIG. 13)” value ([6]; compound conc. 2.441, 24 hours) was 2.592 and 2.536 and 2.499. For the same compound, the “Cell viability by MTS assay (FIG. 13)” value ([6]; compound conc. 4.882, 24 hours) was 2.532 and 2.463 and 2.457, the “Cell viability by MTS assay (FIG. 13)” value ([6]; compound conc. 9.765, 24 hours) was 2.505 and 2.474 and 2.514 and the “Cell viability by MTS assay (FIG. 13)” value ([6]; compound conc. 19.531, 24 hours) was 2.485 and 2.466 and 2.502. The “Cell viability by MTS assay (FIG. 13)” value ([6]; compound conc. 39.062, 24 hours) was 2.503 and 2.474 and 2.453, the “Cell viability by MTS assay (FIG. 13)” value ([6]; compound conc. 78.125, 24 hours) was 2.521 and 2.488 and 2.475 and the “Cell viability by MTS assay (FIG. 13)” value ([6]; compound conc. 156.25, 24 hours) was 2.484 and 2.42 and 2.492. The “Cell viability by MTS assay (FIG. 13)” value ([6]; compound conc. 312.5, 24 hours) was 2.409 and 2.301 and 2.437, the “Cell viability by MTS assay (FIG. 13)” value ([6]; compound conc. 625, 24 hours) was 2.358 and 2.242 and 2.347 and the “Cell viability by MTS assay (FIG. 13)” value ([6]; compound conc. 1250, 24 hours) was 2.2 and 2.055 and 2.3. The “Cell viability by MTS assay (FIG. 13)” value ([6]; compound conc. 2500, 24 hours) was 1.989 and 1.891 and 2.085, the “Cell viability by MTS assay (FIG. 13)” value ([6]; compound conc. 5000, 24 hours) was 2.081 and 2.003 and 2.004 and the “Cell viability by MTS assay (FIG. 13)” value ([6]; compound conc. 10000, 24 hours) was 1.908 and 1.82 and 1.732.
